These results are taken from patent US9156790B2, “Anticancer P21-activated kinase inhibitors” (Ohio State Innovation Foundation, priority 2013, dated 2015).

Assay [1] has as its system TPC1 cells. Description: MTT cell viability assay, TPC1. It is filed as cell-based, Human. Conditions: 1% FBS, mean±standard deviation (n=3), read-out: IC50 for reducing viability of TPC1 cells versus DMSO control. The text has this:
(§1) Human thyroid cancer BCPAP, TPC1, and FTC133 cell lines were the generous gifts of Drs. Rebecca Schweppe and Bryan Haugen (University of Colorado Denver) (Schweppe et al., The Journal of clinical endocrinology and metabolism 83:4331-4341 (2008)) with permission from the following originating laboratories: BCPAP—Dr. Fabien, Centre Hospitalier Lyon-Sud, France (Fabien et al., Cancer 73:2206-2212 (1994)); TPC1—Dr. Sato, Kanazawa University, Japan (Tanaka et al., Virology 161:62-411 (1987)); and FTC133—Dr. Goretzki, University of Leipzig, Germany (Goretzki et al., Recent Results Cancer Res 118:48-63 (1990)). The obtained cell lines were confirmed for identity by DNA fingerprinting. BCPAP was grown in RPMI 1640 medium (Life Technologies Co., Carlsbad, Calif.) while FTC133 and TPC1 were grown in DMEM (Life Technologies Co.), both supplemented with 10% fetal bovine serum (FBS) and NEAA unless as noted for experiments.
(§2) The effect of OSU-03012 and its derivatives on cell viability was assessed by using the 3-(4,5-dimethylthiazol-2-yl)-2,5-diphenyl-2H-tetrazolium bromide (MTT) assay. Three replicates were performed in each individual experiment, and experiments were repeated at least three separate times. Cells were grown in 96-well plates for 24 hours and were exposed to various concentrations of drugs dissolved in DMSO (final concentration 0.1%) in RPMI 1640 or DMEM containing 1% FBS for 72 hours. 10 μL of 0.5 mg/ml MTT was added to each well and cells were incubated in CO2 at 37° C. for 2 hours. Supernatants were removed from the wells, the reduced MTT dye was solubilized in 100 μL of solution C (12 ml of 1N HCl in 300 mL of isopropanol), and absorbance at 570 nm was determined on a microplate reader.
(§3) We assessed the ability of the compounds to reduce cell viability in vitro by MTT assay after 72 hours of continuous exposure. Results are shown in Table 1 and are depicted as the IC50 vs. simultaneously performed DMSO control.
(§4) ^aThe reported IC50 values are concentrations at which BCPAP, FTC133 and TPC1 cell viability by MTT assays 50% of DMSO control after 72-hours of exposure. Data are presented as mean±standard deviation (n=3). PAK and PDK1 Selectivity In Vivo
(In general: Tetrazolium assays rely on reduction of a dye to a coloured formazan, in cell work by metabolically active cells.)

In assay [2] the test system is FTC133 cells. The experiment in a line: MTT cell viability assay, FTC133. Type of assay: cell-based, Human. Conditions: 1% FBS, mean±standard deviation (n=3), read-out: IC50 for reducing viability of FTC133 cells versus DMSO control.
Description: as §1, §2, §3, §4

Assay [3] has as its target T1, Recombinant active PAK 1 (Homo sapiens, UniProt Q13153).
T1 construct: purchased Calbiochem
Description: In vitro PAK1 kinase assay (MBP substrate, 32P-ATP). Type of assay: biochemical. Conditions: for Inhibition of PAK1 kinase activity in initial screen: 7.5 μM inhibitor, 2.5 μM ATP, myelin basic protein substrate (FIG. 2A); for Relative PAK1 inhibitory potency (comparison in words): in vitro kinase assay, comparison between compounds / with OSU-03012. Here is the method: Recombinant active PAK 1 (Calbiochem) was incubated with selected derivatives or 0.1% DMSO in the presence or absence of MBP (Sigma) in a 1× kinase buffer (Cell Signaling). The addition of [γ-32P]-ATP (2.5 μCi/reaction) (Perkin Elmer) started the reaction, which was incubated at 30° C. for 30 minutes. The reaction was terminated by the addition of EDTA. Results were obtained after visualization of ^32P-labeled MBP after separation on 12% polyacrylamide gels and autoradiography. For the Lineweaver-Burk plot analysis, the ratio of radioactive ATP to nonradioactive ATP was not altered. The PAK1 kinase activities are the means of three independent experiments quantified using P81 phosphocellulose paper by a scintillation counter after three washes with 0.75% phosphoric acid.
Screening of OSU-03012 Derivatives to Identify PAK1 Inhibitors. The 17 derivatives along with OSU-03012, each at 7.5 μM, were screened for their ability to inhibit PAK1 activity by in vitro PAK1 kinase assay. The dose was chosen (above the IC50 of OSU-03012) to allow OSU-03012 to serve as a robust positive control. The PAK1 kinase assay was performed using recombinant active PAK1 with myelin basic protein as substrate in the presence of 2.5 μM ATP and 7.5 μM of respective inhibitors.
To further investigate these six compounds, dose-response studies on PAK1 activity were performed by using PAK1 kinase assay. […] We next questioned whether compounds 4 or 15 inhibited PAK1 in an ATP competitive manner as their parent compound OSU-03012.

Assay [4] has as its system BCPAP cells. Description: MTT cell viability assay, BCPAP. Type of assay: cell-based, Human. Conditions: 72-hours of exposure, 1% FBS, mean±standard deviation (n=3), read-out: IC50 for reducing viability of BCPAP cells versus DMSO control.
Description: as §1, §2, §3, §4

Where [5] appears, read: Homo sapiens, TPC1, 72-hours of exposure.
Where [6] appears, read: Homo sapiens, FTC-133, 72-hours of exposure.

Like-named read-outs stand apart in the source and are kept apart here. Bounds are passed on as bounds.

T1 sequence (Q13153 whole entry): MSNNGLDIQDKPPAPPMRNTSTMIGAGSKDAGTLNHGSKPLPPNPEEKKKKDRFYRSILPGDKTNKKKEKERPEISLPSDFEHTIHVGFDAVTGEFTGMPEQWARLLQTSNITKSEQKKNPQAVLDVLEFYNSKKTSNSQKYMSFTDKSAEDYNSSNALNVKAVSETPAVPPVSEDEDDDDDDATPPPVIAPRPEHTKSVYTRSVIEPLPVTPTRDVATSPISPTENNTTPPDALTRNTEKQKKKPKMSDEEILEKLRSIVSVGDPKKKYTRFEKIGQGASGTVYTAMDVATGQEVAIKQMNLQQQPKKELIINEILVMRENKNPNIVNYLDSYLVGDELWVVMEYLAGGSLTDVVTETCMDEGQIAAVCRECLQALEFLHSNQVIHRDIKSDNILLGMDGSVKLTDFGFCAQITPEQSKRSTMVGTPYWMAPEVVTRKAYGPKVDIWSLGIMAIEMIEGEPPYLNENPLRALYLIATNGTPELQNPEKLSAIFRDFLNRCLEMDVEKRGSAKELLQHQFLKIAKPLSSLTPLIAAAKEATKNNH

With `NCC(=O)Nc1ccc(-n2nc(C(=O)NCc3ccccc3)cc2-c2ccc3ccc4ccccc4c3c2)cc1` [Compound 1, 1-(4-(2-Aminoacetamido)phenyl)-N-benzyl-5-(phenanthren-3-yl)-1H-pyrazole-3-carboxamide], the IC50 – broadly, the concentration that inhibits the measured activity by half – turned out to be 2.6 ± 0.81 µM in assay [1] (setting [5]); 4.78 ± 4.53 µM in assay [2] (setting [6]); 2.01 ± 0.59 µM in assay [4] (Homo sapiens, BCPAP). The “Inhibition of PAK1 kinase activity in initial screen” value (shortened to “Inhibition of PAK1 kinase activity”) in assay [3] is recorded as “inhibited PAK1 kinase activity”.
Take `NCC(=O)Nc1ccc(-n2nc(CO)cc2-c2ccc3ccc4ccccc4c3c2)cc1` [Compound 9, 2-Amino-N-(4-(3-(hydroxymethyl)-5-(phenanthren-3-yl)-1H-pyrazol-1-yl)phenyl)-acetamide]: the IC50 in assay [1] (setting [5]) is 2.42 ± 0.13 µM; in assay [2] (setting [6]), 4.75 ± 2.47 µM; in assay [4] (Homo sapiens, BCPAP), 4.04 ± 1.38 µM. The “Relative PAK1 inhibitory potency (comparison in words)” value (“Relative PAK1 inhibitory potency” below) in assay [3] is “did not show any improvement”.
With `NCC(=O)Nc1ccc(-n2nc(CO)cc2-c2ccc3c(ccc4ccccc43)c2)cc1` [Compound 10, 2-Amino-N-(4-(3-(hydroxymethyl)-5-(phenanthren-2-yl)-1H-pyrazol-1-yl)phenyl)-acetamide], the half-inhibitory concentration (IC50) in assay [1] (setting [5]) was determined as 7.39 ± 1.9 µM; in assay [2] (setting [6]), 8.95 ± 0.57 µM; in assay [4] (Homo sapiens, BCPAP), 6.53 ± 2.16 µM. Besides, the “Inhibition of PAK1 kinase activity” value in assay [3] is “inhibited PAK1 kinase activity”. The “Relative PAK1 inhibitory potency” value in assay [3] is on record as “more potent activity”.
Take `NCCC(=O)Nc1ccc(-n2nc(CO)cc2-c2ccc3c(ccc4ccccc43)c2)cc1` [Compound 12, 3-Amino-N-(4-(3-(hydroxymethyl)-5-(phenanthren-2-yl)-1H-pyrazol-1-yl)phenyl)-propanamide]: the IC50 in assay [1] (setting [5]) is 5.83 ± 1.73 µM; in assay [2] (setting [6]) it was 7.55 ± 2.19 µM; in assay [4] (Homo sapiens, BCPAP), 3.76 ± 1.2 µM.
With `CNC(=O)c1cc(-c2ccc3c(ccc4ccccc43)c2)n(-c2ccc(NC(=O)CCN)cc2)n1` [Compound 14, 1-(4-(3-aminopropanamido)phenyl)-N-methyl-5-(phenanthren-2-yl)-1 μl-pyrazole-3-carboxamide], the IC50 is 5.98 ± 0.28 µM in assay [1] (72-hours of exposure), 5.42 ± 1.56 µM in assay [2] (72-hours of exposure) and 3.32 ± 1.09 µM in assay [4]. Besides, the “Relative PAK1 inhibitory potency” value in assay [3] was “more potent”.
`CNC(=O)c1cc(-c2ccc3ccc4ccccc4c3c2)n(-c2ccc(NC(=O)CN)cc2)n1` [Compound 7, 1-(4-(2-aminoacetamido)phenyl)-N-methyl-5-(phenanthren-3-yl)-1H-pyrazole-3-carboxamide]: the IC50 in assay [1] (setting [5]) stood at 3.67 ± 1.52 µM; in assay [2] (setting [6]) it was 4.53 ± 2.57 µM; in assay [4] (Homo sapiens, BCPAP), 3.71 ± 1.82 µM.
`NCC(=O)Nc1ccc(-n2nc(C(F)(F)F)cc2-c2ccc3ccc4ccccc4c3c2)cc1` [Compound 3, 2-Amino-N-(4-(5-(phenanthren-3-yl)-3-(trifluoromethyl)-1H-pyrazol-1-yl)phenyl)-acetamide]: the IC50 in assay [1] (setting [5]) was determined as 3.17 ± 1.29 µM; in assay [2] (setting [6]), 5.32 ± 4.05 µM; in assay [4] (Homo sapiens, BCPAP), 2.34 ± 0.27 µM. Also, the “Inhibition of PAK1 kinase activity” value in assay [3] is given as “inhibited PAK1 kinase activity”. The “Relative PAK1 inhibitory potency” value in assay [3] is given as “slightly more potent”.
For the compound `CNC(=O)c1cc(-c2ccc3c(ccc4ccccc43)c2)n(-c2ccc(N)cc2)n1` [Compound 5, 1-(4-Aminophenyl)-N-methyl-5-(phenanthren-2-yl)-1H-pyrazole-3-carboxamide], the IC50 in assay [1] (setting [5]) was over 10 µM; in assay [2] (setting [6]) it was 5.03 ± 0.25 µM; in assay [4] (Homo sapiens, BCPAP) it was over 10 µM. In addition, the “Relative PAK1 inhibitory potency” value in assay [3] is recorded as “did not show any activity”.
For the compound `CNC(=O)c1cc(-c2ccc3c(ccc4ccccc43)c2)n(-c2ccc(NC(=O)CN)cc2)n1` [Compound 8, 1-(4-(2-Aminoacetamido)phenyl)-N-methyl-5-(phenanthren-2-yl)-1H-pyrazole-3-carboxamide], the IC50 in assay [1] (setting [5]) was 4.67 ± 4.16 µM; in assay [2] (setting [6]), 3.08 ± 1.63 µM; in assay [4] (Homo sapiens, BCPAP), 2.9 ± 2.35 µM.
`CNC(=O)c1cc(-c2ccc3ccc4ccccc4c3c2)n(-c2ccc(N)cc2)n1` [Compound 17, 1-(4-Aminophenyl)-N-methyl-5-(phenanthren-3-yl)-1H-pyrazole-3-carboxamide]: the IC50 was 8.96 ± 1.17 µM in assay [1] (setting [5]); over 10 µM in assay [2] (setting [6]); over 10 µM in assay [4] (Homo sapiens, BCPAP). In assay [3], the “Relative PAK1 inhibitory potency” value was “did not show any activity”.
As to “1-(4-Aminophenyl)-5-(phenanthren-2-yl)-1H-pyrazol-3-yl) methanol [Compound 6]”, the IC50 in assay [1] (72-hours of exposure), in assay [2] (72-hours of exposure) and in assay [4] was over 10 µM throughout. Besides, the “Relative PAK1 inhibitory potency” value in assay [3] is on record as “did not show any activity”.
For `Nc1ccc(-n2nc(CO)cc2-c2ccc3ccc4ccccc4c3c2)cc1` [Compound 16, (1-(4-Aminophenyl)-5-(phenanthren-3-yl)-1H-pyrazol-3-yl)methanol], the IC50 in assay [1] (setting [5]) is 4.32 ± 2.18 µM; in assay [2] (setting [6]), over 10 µM; in assay [4] (Homo sapiens, BCPAP), over 10 µM. The “Relative PAK1 inhibitory potency” value in assay [3] is given as “did not show any activity”.
On to `CCNC(=O)c1cc(-c2ccc3ccc4ccccc4c3c2)n(-c2ccc(NC(=O)CN)cc2)n1` [Compound 2, 1-(4-(2-aminoacetamido)phenyl)-N-ethyl-5-(phenanthren-3-yl)-1H-pyrazole-3-carboxamide], for which the IC50 is 1.81 ± 1.24 µM in assay [1] (setting [5]); 4.83 ± 4.47 µM in assay [2] (setting [6]); 2.67 ± 0.82 µM in assay [4] (Homo sapiens, BCPAP).
As for `CNC(=O)c1cc(-c2ccc3ccc4ccccc4c3c2)n(-c2ccc(NC(=O)CCN)cc2)n1` [Compound 13, 1-(4-(3-Aminopropanamido)phenyl)-N-methyl-5-(phenanthren-3-yl)-1H-pyrazole-3-carboxamide], the IC50 was found to be 3.62 ± 0.42 µM in assay [1] (setting [5]); 4.95 ± 3.21 µM in assay [2] (setting [6]); 2.76 ± 1.56 µM in assay [4] (Homo sapiens, BCPAP). The “Relative PAK1 inhibitory potency” value in assay [3] is reported as “more potent”.
